IC50 data for two molecules are collected here from PubChem BioAssay AID651796 (The Scripps Research Institute Molecular Screening Center, 2012).

The experiment has as its target Nuclear receptor coactivator 1 (Homo sapiens) (UniProt Q15788). Briefly: SRC1 (NCOA1) coactivator inhibitors, late-stage follow-up, cell-based, luminescence (AID 651796). The settings on record: cell-based SRC1 reporter.

Calls of active or inactive are those of the source. The rule behind the calls is not given here.

Sequence of Nuclear receptor coactivator 1 (Homo sapiens) (Q15788 whole entry, looked up): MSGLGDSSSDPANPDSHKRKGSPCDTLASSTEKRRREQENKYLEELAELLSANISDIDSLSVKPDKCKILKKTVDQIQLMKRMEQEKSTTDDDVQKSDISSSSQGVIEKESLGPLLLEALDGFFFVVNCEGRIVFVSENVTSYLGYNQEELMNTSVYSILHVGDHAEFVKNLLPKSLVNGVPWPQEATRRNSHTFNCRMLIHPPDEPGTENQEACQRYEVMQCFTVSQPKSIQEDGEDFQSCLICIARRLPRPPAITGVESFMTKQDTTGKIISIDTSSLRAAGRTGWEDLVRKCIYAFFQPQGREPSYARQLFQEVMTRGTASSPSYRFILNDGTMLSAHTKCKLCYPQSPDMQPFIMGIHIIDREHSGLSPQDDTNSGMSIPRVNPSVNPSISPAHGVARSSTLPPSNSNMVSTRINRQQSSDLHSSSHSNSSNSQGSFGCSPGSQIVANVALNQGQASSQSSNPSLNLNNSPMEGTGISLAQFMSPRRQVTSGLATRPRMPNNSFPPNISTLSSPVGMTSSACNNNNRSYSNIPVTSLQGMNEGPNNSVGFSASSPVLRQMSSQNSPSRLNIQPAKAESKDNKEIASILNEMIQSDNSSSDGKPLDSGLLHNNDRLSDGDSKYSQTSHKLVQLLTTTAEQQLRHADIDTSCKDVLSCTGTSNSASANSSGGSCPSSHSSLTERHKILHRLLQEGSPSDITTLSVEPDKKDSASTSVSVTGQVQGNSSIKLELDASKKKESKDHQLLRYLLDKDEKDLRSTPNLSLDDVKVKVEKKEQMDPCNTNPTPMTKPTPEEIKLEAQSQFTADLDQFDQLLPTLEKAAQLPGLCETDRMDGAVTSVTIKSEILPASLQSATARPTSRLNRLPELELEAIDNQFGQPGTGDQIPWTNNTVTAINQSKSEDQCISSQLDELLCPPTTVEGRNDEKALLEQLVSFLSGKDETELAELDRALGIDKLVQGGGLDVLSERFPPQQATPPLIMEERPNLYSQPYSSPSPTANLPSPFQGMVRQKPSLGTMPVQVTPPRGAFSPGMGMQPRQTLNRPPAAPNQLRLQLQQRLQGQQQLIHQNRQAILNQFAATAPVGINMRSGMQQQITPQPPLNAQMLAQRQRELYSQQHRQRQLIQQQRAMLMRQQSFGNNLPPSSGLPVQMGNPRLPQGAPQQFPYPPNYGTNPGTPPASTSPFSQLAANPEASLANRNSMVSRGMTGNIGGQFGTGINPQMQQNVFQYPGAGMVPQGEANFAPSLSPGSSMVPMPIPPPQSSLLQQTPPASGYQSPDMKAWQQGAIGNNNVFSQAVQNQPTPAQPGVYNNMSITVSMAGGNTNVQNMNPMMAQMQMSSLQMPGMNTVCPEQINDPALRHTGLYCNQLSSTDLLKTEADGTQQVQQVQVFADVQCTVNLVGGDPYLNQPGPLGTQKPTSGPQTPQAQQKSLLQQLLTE

The IC50 is the concentration at which inhibition is half-maximal. Consider `COc1ccc(NC(=O)CN(C)C(=O)C2(c3ccccc3)CCCC2)cc1`, for which the IC50 was 9.94 µM.
Take `COc1ccc(Nc2ncnc3ccc(Br)cc23)c(OC)c1`: the IC50 entry was “inactive”.
